Earlier results on two compounds are cited in PMC8763792, “Pharmacokinetic/Pharmacodynamic Based Breakpoints of Polymyxin B for Bloodstream Infections Caused by Multidrug-Resistant Gram-Negative Pathogens” (Frontiers in Pharmacology, 2022).

Read-outs that look alike come from different tables or passages of the source. Positions of bridges follow the written chain, without caps; N, C: chain ends. Non-standard residues stand in square brackets, D forms with d. Residues, ends and D or L forms follow the SMILES beside them. *: point of attachment. X1 = CC[C@H](C)CCCCC(=O)*; Dab = NCC[C@H](N)C(=O)O

One data set has as its system K. pneumoniae. Conditions: dash in Table S1 explained, ref Landersdorfer, C.B., 2018. An excerpt:
Supplement DataSheet1.zip/Table 1.DOCX, table 1: Table S1.

The procedure of data set [1]: The area under the unbound concentration-time curve over 24 h to the MIC ratio (fAUC0–24h/MIC) is the most predictive PK/PD index for polymyxins ([Tam et al., 2005]; [Bergen et al., 2008]; [Bergen et al., 2010]; [Cheah et al., 2015]; [Landersdorfer et al., 2018]). PK/PD targets of 1-log10 CFU and 2-log10 CFU reductions in colony forming units (CFU)/thigh were derived from dose-fractionation studies of polymyxin B (K. pneumoniae) and colistin (P. aeruginosa and A. baumannii) in murine thigh infection models (Supplementary Table S1; [Cheah et al., 2015]; [Landersdorfer et al., 2018]). Given poly ... || The recommended dose of intravenously administered polymyxin B throughout much of the world is 1.5–2.5 mg/kg/day with a loading dose of 2–2.5 mg/kg ([Tsuji et al., 2019]). In China, the only brand of polymyxin B currently available has a recommended intravenous dose of 50–100 mg/day (Polymyxin B for injection ([Daily Med, 2017]), equivalent to 0.83–1.66 mg/kg/day (0.42–0.83 mg/kg/12 h) for a 60 kg patient. Importantly, [Lakota et al. (2018)] proposed that for pathogens with MICs ≤2 mg/L, the target AUC0–24h,ss for polymyxin B should be 50–100 mg h/L. In our study, the polymyxin B AUC0–24h,ss a ...

The conditions of data set [2]: critically-ill patients, ref Sandri et al., 2013, Nation et al., 2017. How it is done:
Removal of the “susceptible” interpretation category for polymyxins by CLSI was driven primarily by lung infection data ([He et al., 2013]; [Landersdorfer et al., 2018]). […] For bloodstream infections, the average steady-state concentrations (C ss,avg) achieved with intravenously administered polymyxin B (0.45–3.38 mg/kg/day) or CMS (2–18 MIU/day) are 2–3 mg/L (polymyxin B and colistin) in critically-ill p ...

Data set [3] concerns extensively-drug resistant Gram-negative bacteria. The note with it: polymyxin B-based regimens 100-200 mg/day, ≥5 days; bloodstream infection; ref Zhao et al., 2020. An excerpt: This is in agreement with othe ...
For data set [4], the system named is A. baumannii or A. calcoaceticus. The note with it: 3,124 isolates, 45 nations, 1997-2016; ref Diekema et al., 2019. An excerpt: (§1) However, the success of this regimen will depend on regional susceptibility data. According to the SENTRY antimicrobial surveillance program for bloodstream infections (data collected from 45 nations including China between 1997 and 2016) ([Diekema et al., 2019]), the MIC90 of colistin for P. aeruginosa (7,107 isolates), A. baumannii or A. calcoaceticus ...

Another data set has as its system Enterobacteriaceae. Conditions: 54,476 isolates, 45 nations, 1997-2016; ref Diekema et al., 2019.
Excerpt: as §1

Another data set deals with P. aeruginosa. Conditions: 7,107 isolates, 45 nations, 1997-2016; ref Diekema et al., 2019.
Excerpt: as §1

As for `CC[C@H](C)CCCCC(=O)N[C@@H](CCN)C(=O)N[C@H](C(=O)N[C@@H](CCN)C(=O)N[C@H]1CCNC(=O)[C@H]([C@@H](C)O)NC(=O)[C@H](CCN)NC(=O)[C@H](CCN)NC(=O)[C@H](CC(C)C)NC(=O)[C@@H](Cc2ccccc2)NC(=O)[C@H](CCN)NC1=O)[C@@H](C)O` [polymyxin B] (X1-[Dab]T[Dab][Dab][Dab][dF]L[Dab][Dab]T; lactam 4-C (inferred); N-terminus assumed), the “PK/PD target fAUC0-24h/MIC, 2-log10 CFU killing” value with K. pneumoniae is “unable to produce a 2-log10 CFU decrease”. Moreover, the “Unbound fraction (f) in plasma” value in data set [1] (plasma, ref Sandri et al., 2013) is given as 42%. In addition, the Protein binding in data set [1] (ref Zavascki et al., 2008) is 78.5–92.4%. The “Average steady-state concentration (Css,avg)” value in data set [2] (intravenous polymyxin B 0.45-3.38 mg/kg/day) is 2000 to 3000 ng/mL. In data set [3], the 28-day all-cause mortality is recorded as 41.0%, the “Clearance rate of microorganisms” value is 65.2% and the “Overall effectiveness (cure or improvement)” value was 59.0%.

Broadly, the MIC90 is the lowest concentration that inhibits either 90% of growth or 90% of the strains tested, depending on the study. Take colistin: the “Average steady-state concentration (Css,avg)” value in data set [2] (colistin after intravenous CMS 2-18 MIU/day) was 2000 to 3000 ng/mL. For the same compound, the MIC90 in data set [4] was 2 µg/mL; in the data set on Enterobacteriaceae, greater than 4 µg/mL; in the data set with P. aeruginosa, 2 µg/mL.
